# How the values were obtained:
# [1] = system: Lactobacillus casei ATCC 4646; experiment: Growth inhibition by aldehydes in product vehicles, pour-plate technique; format: cell-based; settings: 1 to 5 percent aldehyde
# Summary of the method: (§1)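 Aldehydes (1 to 5 percent by weight) were formulated into syrups, candies, mouthwash, toothpaste or toothpowder, added directly or as aqueous extracts to medium without a carbon source mixed 1:1 with filter-sterilized human saliva. Sugar came from the product or added sucrose. Growth over up to 24 hours was read by pour-plate count.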
# [2] = system: Streptococcus spp. KI-R; experiment: as above; format: cell-based; settings: 1 to 5 percent aldehyde
# Summary of the method: as §1
# [3] = system: Streptococcus sp. FA-1; experiment: Acid production inhibition, broth-tube technique; settings: single agent
# Description: (§7) The data was compiled through well-known broth tube analysis techniques.
# (a)Measured by broth-tube technique.
# [4] = In vivo caries evaluation, albino hamster; settings: Table I, 56 days
# Description: (§2) Standard laboratory techniques were used to complie the data presented. In each case the aldehyde was incorporated into each specimen's food in a one percent, by weight, quantity, over a period of several weeks. In all cases, caries reduction was noted.
# (§3) The aldehydes tested in vivo were pyruvaldehyde, d,1-glyceraldehyde, crystalline dimer, glycolaldehyde, octanaldehyde, nonanaldehyde, decanaldehyde, undecylenic aldehyde, and lauric aldehyde. The polyaldehydes tested were dialdehyde starch, dialdehyde starch 50 percent oxidized, dialdehyde starch 90 percent oxidized, and dialdehyde galactomannan gum.
# (§4) ^(a) Agents were incorporated in the diet at a 1 percent level.
# [5] = system: Mixed Oral Microorganisms; experiment: Acid production inhibition, broth-tube technique; settings: single agent
# Description: as §7
# (a)Measured by broth-tube technique.
# [6] = system: Lactobacillus casei and Streptococcus sp. FA-1; experiment: Acid-production inhibition by broth-tube assay, 0.1 percent of compound; format: cell-based; settings: Table X; 0.1 percent of compound; read-out: Activity, Acid-Production Inhibition%
# Protocol: ^(a) Activity was measured by broth-tube assay to determine percent
# (§5) acid-production inhibition obtained by Lactobacillus casei and
# Streptococcus sp. FA-1 in the presence of 0.1 percent of compound.
# ^(a) Activity was measured by broth-tube assay to determine percent o
# as §5
# Streptococcus sp. FA-1 in the presence of 0.1% of compound. Symbols
# [7] = system: L. casei; experiment: Growth inhibition of oral microorganisms in vitro, pour plates; format: cell-based, Lactobacillus casei; settings: Table IX
# Protocol: (§6) (a)Determined on freshly grown pure cultures. Pour plates were incubated
# [8] = system: Streptococcus spp. FA-1; experiment: as above; format: cell-based; settings: Table IX
# Protocol: as §6
# [9] = In vivo caries evaluation, Osborne-Mendel strain 2 rat; design: species or system rat (Osborne-Mendel strain 2); settings: Table I, 90 days
# Description: as §2, §3, §4
# [10] = in compressed candy tablet, 2 h incubation
# [11] = in compressed candy tablet, 5 h incubation
# [12] = in compressed candy tablet, 24 h incubation
# [13] = in dextrose syrup, 2 h incubation
# [14] = in dextrose syrup, 5 h incubation
# [15] = in dextrose syrup, 24 h incubation
# [16] = in sucrose syrup, 2 h incubation
# [17] = in sucrose syrup, 5 h incubation
# [18] = in sucrose syrup, 24 h incubation
# [19] = in tooth powder (aqueous extract), 2 h incubation
# [20] = in tooth powder (aqueous extract), 5 h incubation
# [21] = in tooth powder (aqueous extract), 24 h incubation
# [22] = in toothpaste (aqueous extract), 2 h incubation
# [23] = in toothpaste (aqueous extract), 5 h incubation
# [24] = in toothpaste (aqueous extract), 24 h incubation
# [25] = Student's test, 95 percent confidence limit
# [26] = pour plates incubated 48 - 72 hours
structure (smiles),measurement,setting,value
"O=C[C@H](O)CO (racemic) [d,1-Glyceraldehyde]",Growth Inhibition,[1]; [10],N.S.
same,Growth Inhibition,[1]; [11],N.S.
same,Growth Inhibition,[1]; [12],100 Per Cent
same,Growth Inhibition,[1]; [13],N.S.
same,Growth Inhibition,[1]; [14],N.S.
same,Growth Inhibition,[1]; [15],> 99.99 Per Cent
same,Growth Inhibition,[1]; [16],0 Per cent
same,Growth Inhibition,[1]; [17],N.S.
same,Growth Inhibition,[1]; [18],99 Per cent
same,Growth Inhibition,[1]; [19],N.S.
same,Growth Inhibition,[1]; [20],N.S.
same,Growth Inhibition,[1]; [21],99.3 Per cent
same,Growth Inhibition,[1]; [22],N.S.
same,Growth Inhibition,[1]; [23],N.S.
same,Growth Inhibition,[1]; [24],100 Per cent
same,Growth Inhibition,[2]; [10],0 Per Cent
same,Growth Inhibition,[2]; [11],N.S.
same,Growth Inhibition,[2]; [12],N.S.
same,Growth Inhibition,[2]; [13],98 Per Cent
same,Growth Inhibition,[2]; [14],> 99.99 Per Cent
same,Growth Inhibition,[2]; [15],> 100 Per Cent
same,Growth Inhibition,"[2]; in mouthwash, 2 h incubation",> 99.99 Per cent
same,Growth Inhibition,"[2]; in mouthwash, 5 h incubation",99.99 Per cent
same,Growth Inhibition,"[2]; in mouthwash, 24 h incubation",100 Per cent
same,Growth Inhibition,[2]; [16],90 Per cent
same,Growth Inhibition,[2]; [17],90 Per cent
same,Growth Inhibition,[2]; [18],99 Per cent
same,Growth Inhibition,[2]; [19],99.88 Per cent
same,Growth Inhibition,[2]; [20],99.99 Per cent
same,Growth Inhibition,[2]; [21],100 Per cent
same,Growth Inhibition,[2]; [22],N.S.
same,Growth Inhibition,[2]; [23],N.S.
same,Growth Inhibition,[2]; [24],0 Per cent
same,Acid Production Inhibition,[3]; 0.01 percent,4%
same,Acid Production Inhibition,[3]; 0.015 percent,10%
same,Acid Production Inhibition,[3]; 0.02 percent,21%
same,"Caries Score, Mean Incidence","[4]; 1 percent in diet, L-2000 control 27.5",8.0
same,"Caries Score, Mean Extent","[4]; 1 percent in diet, L-2000 control 80.9",21.8
same,"Caries Extent Reduction, statistical evaluation",[4]; [25],Significant
same,"Caries Incidence Reduction, statistical evaluation",[4]; [25],Significant
same,Acid Production Inhibition,[5]; 0.03 percent,7%
same,Acid Production Inhibition,[5]; 0.04 percent,12%
same,Acid Production Inhibition,[5]; 0.05 percent,19%
same,Acid Production Inhibition,[5]; 0.06 percent,30%
same,Acid Production Inhibition,[5]; 0.07 percent,40%
CCCCCCCCCC=O [Decanaldehyde],inhibition at 0.1 %,[6],99 to 100%
same,Growth Inhibition,[1]; [10],99.98 Per Cent
same,Growth Inhibition,[1]; [11],100 Per Cent
same,Growth Inhibition,[1]; [12],100 Per Cent
same,Growth Inhibition,[1]; [13],99.7 Per Cent
same,Growth Inhibition,[1]; [14],100 Per Cent
same,Growth Inhibition,[1]; [15],100 Per Cent
same,Growth Inhibition,[1]; [16],99.5 Per cent
same,Growth Inhibition,[1]; [17],> 99.9 Per cent
same,Growth Inhibition,[1]; [18],> 99.99 Per cent
same,Growth Inhibition,[1]; [22],0 Per cent
same,Growth Inhibition,[1]; [23],N.S.
same,Growth Inhibition,[1]; [24],0 Per cent
same,Growth Inhibition,[2]; [10],N.S.
same,Growth Inhibition,[2]; [11],N.S.
same,Growth Inhibition,[2]; [12],N.S.
same,Growth Inhibition,[2]; [13],100 Per Cent
same,Growth Inhibition,[2]; [14],100 Per Cent
same,Growth Inhibition,[2]; [15],100 Per Cent
same,Growth Inhibition,[2]; [16],> 99.99 Per cent
same,Growth Inhibition,[2]; [17],> 99.99 Per cent
same,Growth Inhibition,[2]; [18],N.S.
same,Growth Inhibition,[2]; [22],0 Per cent
same,Growth Inhibition,[2]; [23],N.S.
same,Growth Inhibition,[2]; [24],N.S.
same,"Bacterial Population, Experimental",[7]; control 8 × 10^8 to 1 × 10^9,4 × 10^2
same,Inhibition (growth),[7]; [26],> 99.99%
same,"Bacterial Population, Experimental",[8]; control 2 × 10^8 to 5 × 10^8,0
same,Inhibition (growth),[8]; [26],100%
O=CCO [Glycolaldehyde],Growth Inhibition,[1]; [10],N.S.
same,Growth Inhibition,[1]; [11],97.3 Per Cent
same,Growth Inhibition,[1]; [12],100 Per Cent
same,Growth Inhibition,[1]; [13],N.S.
same,Growth Inhibition,[1]; [14],98 Per Cent
same,Growth Inhibition,[1]; [15],100 Per Cent
same,Growth Inhibition,[1]; [16],N.S.
same,Growth Inhibition,[1]; [17],93 Per cent
same,Growth Inhibition,[1]; [18],> 99.99 Per cent
same,Growth Inhibition,[1]; [19],N.S.
same,Growth Inhibition,[1]; [20],N.S.
same,Growth Inhibition,[1]; [21],99.99 Per cent
same,Growth Inhibition,[1]; [22],0 Per cent
same,Growth Inhibition,[1]; [23],N.S.
same,Growth Inhibition,[1]; [24],100 Per cent
same,Growth Inhibition,[2]; [10],99.9 Per Cent
same,Growth Inhibition,[2]; [11],N.S.
same,Growth Inhibition,[2]; [12],N.S.
same,Growth Inhibition,[2]; [13],99.1 Per Cent
same,Growth Inhibition,[2]; [14],100 Per Cent
same,Growth Inhibition,[2]; [15],100 Per Cent
same,Growth Inhibition,"[2]; in mouthwash, 2 h incubation",99.98 Per cent
same,Growth Inhibition,"[2]; in mouthwash, 5 h incubation",100 Per cent
same,Growth Inhibition,"[2]; in mouthwash, 24 h incubation",100 Per cent
same,Growth Inhibition,[2]; [16],80 Per cent
same,Growth Inhibition,[2]; [17],> 99.9 Per cent
same,Growth Inhibition,[2]; [18],> 99.99 Per cent
same,Growth Inhibition,[2]; [19],N.S.
same,Growth Inhibition,[2]; [20],93.3 Per cent
same,Growth Inhibition,[2]; [21],100 Per cent
same,Growth Inhibition,[2]; [22],0 Per cent
same,Growth Inhibition,[2]; [23],N.S.
same,Growth Inhibition,[2]; [24],N.S.
same,Acid Production Inhibition,[3]; 0.02 percent,19%
same,Acid Production Inhibition,[3]; 0.03 percent,39%
same,Acid Production Inhibition,[3]; 0.04 percent,72%
same,"Caries Extent Reduction, statistical evaluation",[9]; [25],Significant
CC(=O)C=O [Pyruvaldehyde],Growth Inhibition,[1]; [10],99.5 Per Cent
same,Growth Inhibition,[1]; [11],100 Per Cent
same,Growth Inhibition,[1]; [12],100 Per Cent
same,Growth Inhibition,[1]; [13],99.4 Per Cent
same,Growth Inhibition,[1]; [14],99.99 Per Cent
same,Growth Inhibition,[1]; [15],100 Per Cent
same,Growth Inhibition,"[1]; in hard candy, 2 h incubation",92 Per Cent
same,Growth Inhibition,"[1]; in hard candy, 5 h incubation",99.85 Per Cent
same,Growth Inhibition,"[1]; in hard candy, 24 h incubation",100 Per Cent
same,Growth Inhibition,[1]; [16],97.5 Per cent
same,Growth Inhibition,[1]; [17],> 99.99 Per cent
same,Growth Inhibition,[1]; [18],> 99.99 Per cent
same,Growth Inhibition,[1]; [19],N.S.
same,Growth Inhibition,[1]; [20],98 Per cent
same,Growth Inhibition,[1]; [21],100 Per cent
same,Growth Inhibition,[1]; [22],N.S.
same,Growth Inhibition,[1]; [23],N.S.
same,Growth Inhibition,[1]; [24],100 Per cent
same,Growth Inhibition,[2]; [10],N.S.
same,Growth Inhibition,[2]; [11],N.S.
same,Growth Inhibition,[2]; [12],N.S.
same,Growth Inhibition,[2]; [13],100 Per Cent
same,Growth Inhibition,[2]; [14],100 Per Cent
same,Growth Inhibition,[2]; [15],100 Per Cent
same,Growth Inhibition,"[2]; in hard candy, 2 h incubation",> 99.99 Per Cent
same,Growth Inhibition,"[2]; in hard candy, 5 h incubation",> 99.99 Per Cent
same,Growth Inhibition,"[2]; in hard candy, 24 h incubation",100 Per Cent
same,Growth Inhibition,"[2]; in mouthwash, 2 h incubation",> 99.99 Per cent
same,Growth Inhibition,"[2]; in mouthwash, 5 h incubation",> 99.99 Per cent
same,Growth Inhibition,"[2]; in mouthwash, 24 h incubation",100 Per cent
same,Growth Inhibition,[2]; [16],> 99.9 Per cent
same,Growth Inhibition,[2]; [17],> 99.99 Per cent
same,Growth Inhibition,[2]; [18],100 Per cent
same,Growth Inhibition,[2]; [19],100 Per cent
same,Growth Inhibition,[2]; [20],100 Per cent
same,Growth Inhibition,[2]; [21],100 Per cent
same,Growth Inhibition,[2]; [22],N.S.
same,Growth Inhibition,[2]; [23],N.S.
same,Growth Inhibition,[2]; [24],N.S.
same,Acid Production Inhibition,[3]; 0.001 percent,10%
same,Acid Production Inhibition,[3]; 0.002 percent,35%
same,Solubility,,water soluble
same,"Caries Score, Mean Incidence","[9]; 1 percent in diet, L-2000 control 15.08 (pyruvaldehyde test), 13.94 (glycolaldehyde test)",5.95
same,"Caries Score, Mean Extent","[9]; 1 percent in diet, L-2000 control 38.80 (pyruvaldehyde test), 35.38 (glycolaldehyde test)",14.55
same,"Caries Extent Reduction, statistical evaluation",[9]; [25],Significant
same,"Caries Incidence Reduction, statistical evaluation",[9]; [25],Significant
same,Acid Production Inhibition,[5]; 0.005 percent,5%
same,Acid Production Inhibition,[5]; 0.007 percent,5%
same,Acid Production Inhibition,[5]; 0.009 percent,7%
same,Acid Production Inhibition,[5]; 0.011 percent,7%

# From patent US4048299A, “Anticaries confectionaries and oral health products” (William Wrigley, Jr. Co., priority 1970, dated 1977)
